Like-named read-outs stand apart in the source and are kept apart here.
Key:
HCT116 MTAP null cells = assay: HCT116 MTAP null cell line proliferation (CellTiter-Glo cell viability, 6 days); assay type: cell-based; details: HCT116 MTAP null cells, 6 days of treatment, CellTiter-Glo cell viability, read-out: HCT-116 MTAP null IC50
Summary of the method: (§1)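 Isogenic HCT116 pair (both MTAP alleles knocked out vs parent) in RPMI 1640 + 10% FBS, seeded overnight at 37° C, 5% CO2, then exposed 6 days to 8- or 9-point 1:3 dilutions from 1 or 10 μM. CellTiter-Glo luminescence; IC50 from sigmoidal fit, Hill slope fixed −1, top 100%, or 4-parameter logistic.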

HCT116 WT cells = assay: HCT116 WT cell line proliferation (CellTiter-Glo cell viability, 6 days); assay type: cell-based; details: HCT116 WT (parent) cells, 6 days of treatment, CellTiter-Glo cell viability, read-out: HCT-116 WT IC50
Summary of the method: as §1

Cn1ncc2c3cc(C(=O)N4CCOC[C@@H]4c4ccc(C(F)(F)F)cc4)ccc3nc(N)c21 (single isomer, unassigned) [Example 584]
IC50 (HCT116 MTAP null cells; HCT116-MTAP null, 144 h): 236 nM
IC50 (HCT116 WT cells; Homo sapiens, HCT-116, 144 h): 11700 nM

Nc1nc2cc(F)c(C(=O)N3CC(c4ccc(C(F)(F)F)cn4)C3)cc2c2c1COC2 [Example 423, (4-amino-7-fluoro-1,3-dihydrofuro[3,4-c]quinolin-8-yl)(3-(5-(trifluoromethyl)-2-pyridinyl)-1-azetidinyl)methanone]
IC50 (HCT116 MTAP null cells; HCT116-MTAP null, 144 h): 653 nM
IC50 (HCT116 WT cells; Homo sapiens, HCT-116, 144 h): 33300 nM

C[C@H]1OCc2c1c(N)nc1cnc(C(=O)N3CCOC[C@H]3c3ccc(F)c(C(F)(F)F)c3)cc21 (racemic) [Example 356, ((3R)-4-amino-3-methyl-1,3-dihydrofuro[3,4-c][1,7]naphthyridin-8-yl)((3R)-3-(4-fluoro-3-(trifluoromethyl)phenyl)-4-morpholinyl)methanone and ((3R)-4-amino-3-methyl-1,3-dihydrofuro[3,4-c][1,7]naphthyridin-8-yl)((3S)-3-(4-fluoro-3-(trifluoromethyl)phenyl)-4-morpholinyl)methanone]
IC50 (HCT116 MTAP null cells; HCT116-MTAP null, 144 h): 257 nM
IC50 (HCT116 WT cells; Homo sapiens, HCT-116, 144 h): > 10000 nM

Nc1nc2cnc(C(=O)N3CCOC[C@@H]3c3ccc(OC(F)(F)F)cc3)cc2c2c1CCC2 [Example 514, (6-amino-8,9-dihydro-7H-cyclopenta[c][1,7]naphthyridin-2-yl)((3S)-3-(4-(trifluoromethoxy)phenyl)-4-morpholinyl)methanone]
IC50 (HCT116 MTAP null cells; HCT116-MTAP null, 144 h): 210 nM
IC50 (HCT116 WT cells; Homo sapiens, HCT-116, 144 h): 2590 nM

Cn1ncc2c(N)nc3cc(F)c(C(=O)N4CCOC[C@@H]4c4ccc(F)cc4)cc3c21 [Example 545, (4-amino-7-fluoro-1-methyl-1H-pyrazolo[4,3-c]quinolin-8-yl)((3S)-3-(4-fluorophenyl)-4-morpholinyl)methanone]
IC50 (HCT116 MTAP null cells; HCT116-MTAP null, 144 h): 31 nM
IC50 (HCT116 WT cells; Homo sapiens, HCT-116, 144 h): 1430 nM

Nc1nc2cnc(C(=O)N3CCOC[C@@H]3c3ccc(C(F)(F)F)nn3)cc2c2c1COC2 [Example 549, (4-amino-1,3-dihydrofuro[3,4-c][1,7]naphthyridin-8-yl)((3S)-3-(6-(trifluoromethyl)-3-pyridazinyl)-4-morpholinyl)methanone]
IC50 (HCT116 MTAP null cells; HCT116-MTAP null, 144 h): 558 nM
IC50 (HCT116 WT cells; Homo sapiens, HCT-116, 144 h): 21500 nM

C[C@@H]1COC[C@H](c2ccc(OC(F)(F)F)cn2)N1C(=O)c1cc2c3c(c(N)nc2cn1)COC3 (racemic) [Example 359, (4-amino-1,3-dihydrofuro[3,4-c][1,7]naphthyridin-8-yl)((3R,5S)-3-methyl-5-(5-(trifluoromethoxy)-2-pyridinyl)-4-morpholinyl)methanone and (4-amino-1,3-dihydrofuro[3,4-c][1,7]naphthyridin-8-yl)((3S,5R)-3-methyl-5-(5-(trifluoromethoxy)-2-pyridinyl)-4-morpholinyl)methanone]
IC50 (HCT116 MTAP null cells; HCT116-MTAP null, 144 h): 22 nM
IC50 (HCT116 WT cells; Homo sapiens, HCT-116, 144 h): 765 nM

Cn1ncc2c(N)nc3cc(F)c(C(=O)N4CC(O)(c5ccc(C(F)(F)F)cc5)C4)cc3c21 [Example 439, (4-amino-7-fluoro-1-methyl-1H-pyrazolo[4,3-c]quinolin-8-yl)(3-hydroxy-3-(4-(trifluoromethyl)phenyl)-1-azetidinyl)methanone]
IC50 (HCT116 MTAP null cells; HCT116-MTAP null, 144 h): 21 nM
IC50 (HCT116 WT cells; Homo sapiens, HCT-116, 144 h): 887 nM

C[C@H]1COC[C@@H](c2ccc(C(F)(F)F)cc2F)N1C(=O)c1cc2c3c(c(N)nc2cn1)COC3 (racemic) [Example 334, (4-amino-1,3-dihydrofuro[3,4-c][1,7]naphthyridin-8-yl)((3R,5S)-3-(2-fluoro-4-(trifluoromethyl)phenyl)-5-methyl-4-morpholinyl)methanone and (4-amino-1,3-dihydrofuro[3,4-c][1,7]naphthyridin-8-yl)((3S,5R)-3-(2-fluoro-4-(trifluoromethyl)phenyl)-5-methyl-4-morpholinyl)methanone]
IC50 (HCT116 MTAP null cells; HCT116-MTAP null, 144 h): 27 nM
IC50 (HCT116 WT cells; Homo sapiens, HCT-116, 144 h): 706 nM

Cn1ncc2c(N)nc3cc(F)c(C(=O)N4CCOC[C@@H]4c4ccc(S(F)(F)(F)(F)F)cc4)cc3c21 [Example 450, (4-amino-7-fluoro-1-methyl-1H-pyrazolo [4,3-c]quinolin-8-yl)((3S)-3-(4-(pentafluoro-lambda~6~-sulfanyl)phenyl)-4-morpholinyl)methanone]
IC50 (HCT116 MTAP null cells; HCT116-MTAP null, 144 h): 5 nM
IC50 (HCT116 WT cells; Homo sapiens, HCT-116, 144 h): 40 nM

C[C@@H]1COC[C@H](c2ccc(OC(F)F)c(F)c2)N1C(=O)c1cc2c3c(c(N)nc2cn1)COC3 (racemic) [Example 390, (4-amino-1,3-dihydrofuro[3,4-c][1,7]naphthyridin-8-yl)((3R,5S)-3-(4-(difluoromethoxy)-3-fluorophenyl)-5-methyl-4-morpholinyl)methanone and (4-amino-1,3-dihydrofuro[3,4-c][1,7]naphthyridin-8-yl)((3S,5R)-3-(4-(difluoromethoxy)-3-fluorophenyl)-5-methyl-4-morpholinyl)methanone]
IC50 (HCT116 MTAP null cells): 165 nM
IC50 (HCT116 WT cells): 6360 nM

Nc1nc2cnc(C(=O)N3CCCOC[C@@H]3c3ccc(C(F)(F)F)cc3)cc2c2c1COC2 (single isomer, unassigned) [Example 597, (4-amino-1,3-dihydrofuro[3,4-c][1,7]naphthyridin-8-yl)((3S)-3-(4-(trifluoromethyl)phenyl)-1,4-oxazepan-4-yl)methanone or (4-amino-1,3-dihydrofuro[3,4-c][1,7]naphthyridin-8-yl)((3R)-3-(4-(trifluoromethyl)phenyl)-1,4-oxazepan-4-yl)methanone]
IC50 (HCT116 MTAP null cells; HCT116-MTAP null, 144 h): 866 nM
IC50 (HCT116 WT cells; Homo sapiens, HCT-116, 144 h): > 10000 nM

Nc1nc2ccc(C(=O)N3CCOC[C@H]3c3ccc(Cl)cc3)cc2c2c1COC2 (single isomer, unassigned) [Example 580]
IC50 (HCT116 MTAP null cells; HCT116-MTAP null, 144 h): > 1000 nM
IC50 (HCT116 WT cells; Homo sapiens, HCT-116, 144 h): > 10000 nM

C[C@@H]1OCc2c1c(N)nc1ccc(C(=O)N3CCOC[C@@H]3c3ccc(OC(F)(F)F)cc3)cc21 (single isomer, unassigned) [Example 569]
IC50 (HCT116 MTAP null cells; HCT116-MTAP null, 144 h): > 1000 nM
IC50 (HCT116 WT cells; Homo sapiens, HCT-116, 144 h): > 10000 nM

Nc1nc2cc(F)c(C(=O)N3CCOCC3c3ccc(OC(F)F)nc3)cc2c2c1COC2 (racemic) [Example 385, (4-amino-7-fluoro-1,3-dihydrofuro[3,4-c]quinolin-8-yl)((3R)-3-(6-(difluoromethoxy)-3-pyridinyl)-4-morpholinyl)methanone and (4-amino-7-fluoro-1,3-dihydrofuro[3,4-c]quinolin-8-yl)((3S)-3-(6-(difluoromethoxy)-3-pyridinyl)-4-morpholinyl)methanone]
IC50 (HCT116 MTAP null cells): 151 nM
IC50 (HCT116 WT cells): 5830 nM

C[C@H]1OCc2c1c(N)nc1cnc(C(=O)N3[C@@H](C)COC[C@H]3c3ccc(C(F)(F)F)cn3)cc21 (racemic) [Example 307, ((3R)-4-amino-3-methyl-1,3-dihydrofuro[3,4-c][1,7]naphthyridin-8-yl)((3R,5S)-3-methyl-5-(5-(trifluoromethyl)-2-pyridinyl)-4-morpholinyl)methanone and ((3R)-4-amino-3-methyl-1,3-dihydrofuro[3,4-c][1,7]naphthyridin-8-yl)((3S,5R)-3-methyl-5-(5-(trifluoromethyl)-2-pyridinyl)-4-morpholinyl)methanone]
IC50 (HCT116 MTAP null cells; HCT116-MTAP null, 144 h): 22 nM
IC50 (HCT116 WT cells; Homo sapiens, HCT-116, 144 h): 492 nM

Nc1nc2cnc(C(=O)N3CCOC[C@@H]3c3ccc(C(F)(F)F)s3)cc2c2c1COC2 (single isomer, unassigned) [Example 617]
IC50 (HCT116 MTAP null cells; HCT116-MTAP null, 144 h): 228 nM
IC50 (HCT116 WT cells; Homo sapiens, HCT-116, 144 h): 5730 nM

N#Cc1ccc([C@@H]2COCCN2C(=O)c2ccc3nc(N)c4c(c3c2)COC4)nc1 (single isomer, unassigned) [Example 576]
IC50 (HCT116 MTAP null cells; HCT116-MTAP null, 144 h): > 1000 nM
IC50 (HCT116 WT cells; Homo sapiens, HCT-116, 144 h): > 10000 nM

C[C@H]1OCc2c1c(N)nc1ccc(C(=O)N3[C@@H](C)COC[C@H]3c3ccc(OC(F)(F)F)cc3F)cc21 (racemic) [Example 329, ((3R)-4-amino-3-methyl-1,3-dihydrofuro[3,4-c]quinolin-8-yl)((3R,5S)-3-(2-fluoro-4-(trifluoromethoxy)phenyl)-5-methyl-4-morpholinyl)methanone and ((3R)-4-amino-3-methyl-1,3-dihydrofuro[3,4-c]quinolin-8-yl)((3S,5R)-3-(2-fluoro-4-(trifluoromethoxy)phenyl)-5-methyl-4-morpholinyl)methanone]
IC50 (HCT116 MTAP null cells; HCT116-MTAP null, 144 h): 50 nM
IC50 (HCT116 WT cells; Homo sapiens, HCT-116, 144 h): 1520 nM

CC1COC[C@H](c2ccc(C(F)(F)F)cn2)N1C(=O)c1ccc2nc(N)c3c(c2c1)COC3 (single isomer, unassigned) [Example 583]
IC50 (HCT116 MTAP null cells; HCT116-MTAP null, 144 h): 17 nM
IC50 (HCT116 WT cells; Homo sapiens, HCT-116, 144 h): 616 nM

Cc1n[nH]c2c1c(N)nc1ccc(C(=O)N3CCOC[C@@H]3c3ccc(C(F)(F)F)cc3)cc12 [Example 405, (4-amino-3-methyl-1H-pyrazolo[4,3-d]quinolin-8-yl)((3S)-3-(4-(trifluoromethyl)phenyl)-4-morpholinyl)methanone]
IC50 (HCT116 MTAP null cells; HCT116-MTAP null, 144 h): 181 nM
IC50 (HCT116 WT cells; Homo sapiens, HCT-116, 144 h): 2700 nM

Cn1ncc2c(N)nc3ccc(C(=O)N4CC[C@H](c5ccc(C(F)(F)F)cc5)C4)cc3c21 [Example 425, (4-amino-1-methyl-1H-pyrazolo[4,3-c]quinolin-8-yl)((3R)-3-(4-(trifluoromethyl)phenyl)-1-pyrrolidinyl)methanone]
IC50 (HCT116 MTAP null cells; HCT116-MTAP null, 144 h): 147 nM
IC50 (HCT116 WT cells; Homo sapiens, HCT-116, 144 h): 4400 nM

Nc1nc2ccc(C(=O)N3CCOC[C@H]3c3ccc(Br)cn3)cc2c2c1COC2 (single isomer, unassigned) [Example 572]
IC50 (HCT116 MTAP null cells; HCT116-MTAP null, 144 h): > 1000 nM
IC50 (HCT116 WT cells; Homo sapiens, HCT-116, 144 h): > 10000 nM

C[C@H]1OCc2c1c(N)nc1ccc(C(=O)N3[C@@H](C)COC[C@H]3c3ccc(Cl)nc3)cc21 (racemic) [Example 312, ((3R)-4-amino-3-methyl-1,3-dihydrofuro[3,4-c]quinolin-8-yl)((3R,5S)-3-(6-chloro-3-pyridinyl)-5-methyl-4-morpholinyl)methanone and ((3R)-4-amino-3-methyl-1,3-dihydrofuro[3,4-c]quinolin-8-yl)((3S,5R)-3-(6-chloro-3-pyridinyl)-5-methyl-4-morpholinyl)methanone]
IC50 (HCT116 MTAP null cells; HCT116-MTAP null, 144 h): 71 nM
IC50 (HCT116 WT cells; Homo sapiens, HCT-116, 144 h): 3000 nM
